Common to all, as to format: in vivo
Data set [1] deals with Echinochloa oryzacola Vasing. In words: Test Example 1: herbicidal activity, application before weed generation in submerged conditions (symbol A). The note with it: application herbicide amount 320 g/ha. The essentials:
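Greenhouse growth at 25–30 °C lasted 3 weeks after treatment, when each weed was graded 0–5 by herbicidal ratio. Treatment was a diluted emulsion applied to the water surface of 4 cm-submerged alluvial soil on the sowing day.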

In another data set the test system is transplanted rice plant. The experiment in a line: Test Example 1: effect on crop, application before weed generation in submerged conditions (symbol a). The note with it: application herbicide amount 320 g/ha. The essentials: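 Rice at 2.5 leaf stage transplanted into submerged soil (4 cm depth) sown with three weed species; herbicide applied before weed emergence.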

The subject of data set [2] is directly sowed rice plant. In words: Test Example 3: effect on crop by foliage application, Wagner pot (symbol b). The note with it: application herbicide amount 320 g/ha, Table 24. The essentials: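 Alluvial soil in a 1/10000-are Wagner pot was flooded to a water depth of 0.1–0.5 cm. Echinochloa crus-galli var. crus-galli, Leptochloa chinensis, Cyperus difformis and rice were sown into it and grown in a greenhouse at 25–30 °C.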

Data set [3] has as its system Echinochloa crus-galli var. crus-galli. The experiment in a line: Test Example 4: herbicidal effect by soil treatment (symbol H). The note with it: application herbicide amount 320 g/ha. The essentials:
(§1)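 Seeds were sown in sterilized diluvial soil, covered with about 1.5 cm of soil, and the soil surface was sprayed with a water-diluted emulsion of the compound at a predetermined rate. Plants grew in a greenhouse at 25° C. to 30° C.; effects were scored visually 3 weeks after application.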

Another data set has as its system Apera spica-venti. In words: Test Example 4: herbicidal effect by soil treatment (symbol L). The conditions noted are these: application herbicide amount 320 g/ha. The essentials:
as §1

For data set [4], the system named is Abutilon theophrasti. In words: Test Example 4: herbicidal effect by soil treatment (symbol M). The conditions noted are these: application herbicide amount 320 g/ha. The essentials: as §1
For another data set, the system named is Chenopodium album. The experiment in a line: Test Example 4: herbicidal effect by soil treatment (symbol O). The conditions noted are these: application herbicide amount 320 g/ha. The essentials:
as §1

The next data set relates to Galium spurium. The experiment in a line: Test Example 4: herbicidal effect by soil treatment (symbol Q). The conditions noted are these: application herbicide amount 320 g/ha. The essentials: as §1
Data set [5] has as its system soybean. In words: Test Example 4: effect on crop by soil treatment (symbol d). The conditions noted are these: application herbicide amount 320 g/ha. The essentials: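 Soil-treatment setup: crop and weed seeds were spot-sown into sterilized diluvial soil, then buried beneath approximately 1.5 cm of it, and the boxes were housed in a 25–30° C. greenhouse.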
A further data set concerns Digitaria ciliaris. The experiment in a line: Test Example 5: herbicidal effect by foliage application, plastic box (symbol F). The conditions noted are these: 320 g/ha, 3 weeks after application. The essentials: (§2)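 Greenhouse foliar test: seedlings at 14 days, grown 25° C. to 30° C. in sterilized diluvial soil; compound applied as an aqueous dilution of an emulsion; response read 3 weeks after spraying.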

The next data set deals with Avena fatua. In words: Test Example 5: herbicidal effect by foliage application, plastic box (symbol I). The conditions noted are these: 320 g/ha, 3 weeks after application. The essentials: as §2
For data set [6], the system named is Abutilon theophrasti. In words: Test Example 5: herbicidal effect by foliage application, plastic box (symbol M). The note with it: 320 g/ha, 3 weeks after application. The essentials:
as §2

Another data set concerns Veronica persica. In words: Test Example 5: herbicidal effect by foliage application, plastic box (symbol R). The note with it: 320 g/ha, 3 weeks after application. The essentials:
as §2

The test system of a further data set is corn. In words: Test Example 5: effect on crop by foliage application, plastic box (symbol c). The note with it: 320 g/ha, 3 weeks after application. The essentials: (§3)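 Foliage-application test plants come from spot sowing in sterilized diluvial soil under a soil layer of about 1.5 cm, grown at 25° C. to 30° C. in a greenhouse.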
The subject of data set [7] is soybean. The experiment in a line: Test Example 5: effect on crop by foliage application, plastic box (symbol d). The conditions noted are these: 320 g/ha, 3 weeks after application. The essentials:
as §3

Take `CC(CC1CC(O)=C(c2c(C)cc(-c3ccc(Cl)cc3)cc2C)C1=O)=NOCC(F)(F)F` (stereo not drawn) [9-024]: the “A (Echinochloa oryzacola Vasing.) herbicidal effect grade” value in data set [1] is listed as 5 (Herbicidal ratio of 90% or more (almost completely withered)). Further, the “a (transplanted rice plant) effect on crop grade” value in the data set on transplanted rice plant was 5 (Herbicidal ratio of 90% or more (almost completely withered)). In data set [2], the “b (directly sowed rice plant) effect on crop grade” value is given as 5 (Herbicidal ratio of 90% or more (almost completely withered)). The “Herbicidal effect grade, H: Echinochloa crus-galli var. crus-galli” value in data set [3] is on record as 5 (Herbicidal ratio of 90% or more (almost completely withered)). In the data set on Apera spica-venti, the “Herbicidal effect grade, L: Apera spica-venti” value is on record as 5 (Herbicidal ratio of 90% or more (almost completely withered)). For the same compound, the “Herbicidal effect grade, M: Abutilon theophrasti” value in the data set on Abutilon theophrasti [4] is listed as 0 (Herbicidal ratio of 5% or lower (almost no effect)). In addition, the “Herbicidal effect grade, O: Chenopodium album” value in the data set with Chenopodium album is recorded as 0 (Herbicidal ratio of 5% or lower (almost no effect)). The “Herbicidal effect grade, Q: Galium spurium” value with Galium spurium was 0 (Herbicidal ratio of 5% or lower (almost no effect)). Moreover, the “Effect on crop grade, d: soybean” value in the data set on soybean [5] was 0 (Herbicidal ratio of 5% or lower (almost no effect)). For the same compound, the “F: Digitaria ciliaris, herbicidal effect grade” value in the data set on Digitaria ciliaris is listed as 5 (Herbicidal ratio of 90% or more (almost completely withered)). For the same compound, the “I: Avena fatua, herbicidal effect grade” value with Avena fatua is recorded as 5 (Herbicidal ratio of 90% or more (almost completely withered)). In the data set with Abutilon theophrasti [6], the “M: Abutilon theophrasti, herbicidal effect grade” value is 3 (Herbicidal ratio of 40% or higher and lower than 70%). Also, the “R: Veronica persica, herbicidal effect grade” value in the data set with Veronica persica was 4 (Herbicidal ratio of 70% or higher and lower than 90%). The “c: corn, effect on crop grade” value in the data set with corn is reported as 5 (Herbicidal ratio of 90% or more (almost completely withered)). Besides, in the data set with soybean [7], the “d: soybean, effect on crop grade” value is 0 (Herbicidal ratio of 5% or lower (almost no effect)).

The values are drawn from patent US11000033B2, “Ketone or oxime compound, and herbicide” (NISSAN CHEMICAL CORPORATION, priority 2014, dated 2021).
